Laboratory results published in US10827758B2, “Relating to water treatment” (BWA WATER ADDITIVES UK LIMITED, priority 2014, dated 2020).

Tests used:
Desulfovibrio vulgaris = assay: Log 10 Reduction of anaerobic bacterium in dosed bacterial suspension (serial dilution into API RP 38 media vials); assay type: cell-based; conditions: TDS 30,000 mg l^-1, ppm dose per Example, 6 = complete kill
Description: (§1) A suspension of Desulfovibrio vulgaris plus Enterobacter aerogenes bacteria containing from 1×10^6 to 1×10^8 cells/mL was prepared in sterile pH 8 phosphate buffer containing varying levels of sodium chloride to give the desired total dissolved solids (TDS) concentration. Aliquots of this suspension were dosed with the indicated concentrations of the phosphonium compound (a) and stabilised halogen containing composition (b) with the concentrations being measured as ppm by weight of the stated composition in the dosed suspension. The mixtures were allowed to stand at room temperature. At the designated contact times, each mixture was sampled to determine the total number of viable cells of both Desulfovibrio vulgaris and Enterobacter aerogenes by serial 10-fold dilution into API RP 38 media vials and anaerobic acid producing media vials, respectively. The vials were incubated at 37° C. for 72 hours. Results were recorded as cells per millilitre.
(§2) Aqueous media inoculated with anaerobe and aerobe culture and having a TDS of 30,000 mg l^−1 was treated with treatment agents comprising: (i) stabilised halogen containing composition; (ii) tri n-butyl n-tetradecyl phosphonium chloride (TTPC) or (iii) a combination of stabilised halogen containing composition and TTPC.
(§3) The efficacy of the treatment agents was evaluated by measuring the Log 10 Reduction of the anaerobic bacterium Desulfovibrio vulgaris and the facultative anaerobeic bacterium Enterobacter aerogenes after contact times of 1 hour, 4 hours and 24 hours as detailed in Table 1. For TTPC the stated ppm value relates to the amount of TTPC added (active). For the stabilised bromine composition the stated ppm relates to the amount of Bromax 7.1 added (product)
(§4) A Log 10 reduction of 6 represents a complete kill for anaerobes and a Log 10 reduction of 8 represents a complete kill for facultative anaerobes.

Enterobacter aerogenes = assay: Log 10 Reduction of facultative anaerobic bacterium in dosed bacterial suspension (serial dilution into anaerobic acid producing media vials); assay type: cell-based; conditions: TDS 30,000 mg l^-1, ppm dose per Example, 8 = complete kill
Description: as §1, §2, §3, §4

| SMILES | Log10 Reduction Anaerobes (Desulfovibrio vulgaris; contact time 1 hour) | Log10 Reduction Facultative Anaerobes (Enterobacter aerogenes; contact time 1 hour) | Log10 Reduction Anaerobes (Desulfovibrio vulgaris; contact time 24 hours) | Log10 Reduction Facultative Anaerobes (Enterobacter aerogenes; contact time 24 hours) | also measured |
| --- | --- | --- | --- | --- | --- |
| CCCCCCCCCCCCCC[P+](CCCC)(CCCC)CCCC.[Cl-] [Example 1, tri n-butyl n-tetradecyl phosphonium chloride] | 3 | 1 | – | – | – |
| CCCCCCCCCCCCCC[P+](CCCC)(CCCC)CCCC.[Cl-] [Example 2, tri n-butyl n-tetradecyl phosphonium chloride] | 6 | 4 | – | – | – |
| CCCCCCCCCCCCCC[P+](CCCC)(CCCC)CCCC.[Cl-] [Example 9, tri n-butyl n-tetradecyl phosphonium chloride] | – | – | – | – | Log10 Reduction Anaerobes (Desulfovibrio vulgaris; contact time 4 hours): 6; Log10 Reduction Facultative Anaerobes (Enterobacter aerogenes; contact time 4 hours): 5 |
| CCCCCCCCCCCCCC[P+](CCCC)(CCCC)CCCC.[Cl-] [Example 17, tri n-butyl n-tetradecyl phosphonium chloride] | – | – | 6 | 5 | – |
| CCCCCCCCCCCCCC[P+](CCCC)(CCCC)CCCC.[Cl-] [Example 18, tri n-butyl n-tetradecyl phosphonium chloride] | – | – | 6 | 8 | – |
